Reference: US11840570B2, “Pharmaceutical combination and method for regulation of tumor microenvironment and immunotherapy” (Great Novel Therapeutics Biotech & Medicals Corporation, priority 2018, dated 2023)

Test system: CT26 colon tumor
Test: Anti-cancer activity in CT26 tumor-bearing BALB/c mice
Assay type: in vivo, mouse
Details: anti-PD-1 10 mg/kg, chidamide 50 mg/kg, metformin 100 mg/kg
Experimental: Animal research was approved and overseen by The Taipei Medical University Institutional Animal Care and Use Committee (TMU IACUC). Six- to eight-wk-old male BALB/C mice (BioLASCO Taiwan) were used for all animal experiments. JC (1×10^7), or CT26 (5×10^6˜1×10^7) cancer cells were inoculated by s.c. into the right flank of each mouse. Tumors were allowed to grow for 11 d (tumor size about 200-300 mm^3) before randomization and treatment. CT26-bearing and JC-bearing mice were given 10 or 2.5 mg/kg of anti-IgG, anti-PD-1 and/or anti-PD-L1 and anti-CTLA-4 (2.5 mg/kg) antibodies i.p. on days 11, 14, 17, 20, 23, and 26 post-tumor implantation, and all antibodies were diluted to appropriate concentrations in 100 μL of sterile PBS (pH 7.4) (Invitrogen Life Technologies). Celecoxib, chidamide, metformin, mocetinostat, entinostat, aspirin, and ibuprofen treatments were administrated orally on day 11 post-tumor implantation. Daily treatment with celecoxib (12.5, 25.0, and 50 mg/kg) or metformin (100 or 200 mg/kg) was performed from days 11 to 26. Chidamide was administered to treat tumor bearing mice at doses of 6.25, 12.5, 25, and 50 mg/kg or as a single dose. Chidamide was orally administered daily from days 11 to 26. Entinostat was orally administered at a dose of 20 mg/kg every two days from days 11 to 25. Mocetinostat was orally administered at a dose of 30 mg/kg daily treatment from days 11 to 26. Aspirin and ibuprofen was orally administered at a dose of 50 mg/kg daily treatment from days 11 to 26. The anti-cancer activity was measured from the start of the treatment of tumor growth until the tumor volume reached 3,000 mm^3. Tumor volume was calculated as length×width^2×0.5.
To understand the anti-cancer activity of anti-PD-1 antibody on the CT-26 colon cancer cell -bearing BALB/c mice, the anti-PD-1 antibody was administered into CT26-bearing mice at 10 mg/kg of anti-PD-1 and/or anti-IgG antibodies i.p. on days 11, 14, 17, 20, 23, and 26 of post tumor implantation. […] The response rate was evaluated by several assays.

SMILES: CN(C)C(=N)N=C(N)N [metformin]
- tumor growth inhibition / anti-cancer activity (FIG. 2A/2B): markedly inhibited
- mice with PD (FIG. 2B, entinostat 20 mg/kg): five
- mice with SD (FIG. 2B, entinostat 20 mg/kg): one
